The values below come from patent publication US12570661B2, “Isoform-specific aldehyde dehydrogenase inhibitors” (The Board of Trustees of the Leland Stanford Junior …, priority 2020, dated 2026).

In experiment [1] the target is T1, ALDH1B1 (Homo sapiens, UniProt P30837).
T1 sequence (P30837 18-517): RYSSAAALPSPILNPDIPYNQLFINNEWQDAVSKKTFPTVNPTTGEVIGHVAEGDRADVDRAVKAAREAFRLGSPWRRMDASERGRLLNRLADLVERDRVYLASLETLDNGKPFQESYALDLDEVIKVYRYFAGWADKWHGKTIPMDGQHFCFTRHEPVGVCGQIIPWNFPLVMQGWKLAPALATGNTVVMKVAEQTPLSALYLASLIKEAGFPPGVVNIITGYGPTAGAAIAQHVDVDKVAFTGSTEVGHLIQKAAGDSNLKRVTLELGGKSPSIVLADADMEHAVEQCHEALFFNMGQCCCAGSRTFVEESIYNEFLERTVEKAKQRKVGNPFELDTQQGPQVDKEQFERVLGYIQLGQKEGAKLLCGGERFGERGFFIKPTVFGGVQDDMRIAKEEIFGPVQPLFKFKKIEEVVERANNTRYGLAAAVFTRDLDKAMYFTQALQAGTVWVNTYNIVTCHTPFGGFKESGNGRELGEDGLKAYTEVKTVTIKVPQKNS
Put plainly: ALDEFLUOR assay of cellular ALDH1B1 activity in ALDH1B1-transfected ALDH1A3−/− A375 cells. Format: cell-based. Conditions: for IC50: ALDEFLUOR, ALDH1B1-overexpressing ALDH1A3−/− A375 cells, read-out: ALDH1B1(in cellulo) IC50. How it is done:
ALDH1A3^−/− A375 cells were seeded into a 6-well plate at a density of 5×10^5 cells/well and cultured for 24 h. The cells were then transfected with either pCMV6-entry, pCMV6-GFP (Addgene, plasmid 11153), or pCMV-ALDH1B1. After 24 h, the media was replaced and transfection efficiencies were estimated by the EGFP-positive cells in the pCMV-GFP-transfected well. The cells were cultured for another 24 h and their ALDH activities were quantified using the ALDEFLUOR assay. Briefly, the cells were isolated from the plate with trypsin and resuspended in ALDEFLUOR assay buffer (STEMCELL Technologies) at a concentration of 4×10^5 cells/mL. Each ALDEFLUOR assay used 0.5 mL of this cell suspension, and the cells were treated with individual compounds for 15 min at 37° C. and 5% CO2. The cell suspensions were then treated with 2.5 μL ALDEFLUOR reagent and incubated for an additional 30 min at 37° C. and 5% CO2. The cells were then collected by centrifugation (450×g) for 5 min at room temperature, resuspended in 200 μL assay buffer, and analyzed with an LSR II flow cytometer (BD Biosciences) at the Stanford FACS facility.

Experiment [2] has as its system SW480 cells. Put plainly: Seahorse oxygen-consumption-rate assay (SW480). Format: cell-based. Conditions: Homo sapiens. How it is done: SW480 cells were seeded into a XF96 microplate (Agilent) at a density of 2×10^4 cells/well and cultured for 24 h. The cells were then incubated for 1 h at 37° C. in a non-CO2 incubator, and the plate was then loaded into a 96-well Seahorse XF analyzer (Agilent) and sequentially injected with the indicated compounds, 1 μM oligomycin A, 1 μM FCCP, or 0.5 μM rotenone/antimycin according to the Agilent Mito Stress protocol. The oxygen consumption rates (OCRs, pmol/min) for each well were measured every 5 min for a 15-min period. Basal OCR values was normalized as 100% for data analyses.

Broadly, the IC50 is the concentration that inhibits the measured activity by half.

In the case of `COc1ccccc1-n1cc(-c2ccccn2)[n+]2c1CCCCC2` [Compound 63], in experiment [1] (flow cytometry), the “effect on ALDH1B1-dependent ALDEFLUOR signal (cellular ALDH1B1 activity)” value is given as “had no effect”. Take `COc1ccccc1C1=CN(c2ccc(-c3ccccc3)cc2)C2=NCCCCN12` [HPI-273]: in experiment [1], the IC50 was 35 nM.

For `COc1ccccc1-n1cc(-c2ccc(-c3ccccc3)cc2)[n+]2c1CCCCC2` [Imidazolium 2], the IC50 in experiment [1] came to 38 nM; in experiment [2], 540 nM. On the same counts, the results for `COc1ccccc1-c1ccc(-c2cn(-c3ccccc3OC)c3[n+]2CCCCC3)cc1.[Br-]` [Imidazolium 8] are 22 nM and 340 nM. In the case of `COc1ccccc1C1=CN(c2ccc(-c3ccccc3)cc2)C2=NCCCN12` [STL5-T-0002], the IC50 in experiment [1] was determined as 110 nM.
